Measurements reported in patent US7732429B2 (Trustees of Tufts College, priority 1994, dated 2010).

Assays:
Format in all cases: cell-based
E. coli ML308 = test: susceptibility of tetracycline susceptible strains (MIC), C5 esters; settings: E. coli ML308, susceptible strain, drug alone
S. aureus 450 = test: as above; settings: S. aureus 450, susceptible strain, drug alone
E. faecalis ATCC 9790 = test: as above; settings: E. faecalis ATCC 9790, susceptible strain, drug alone
E. coli DI-299 (Tet A) = test: MIC/MLC chart, analog with and without doxycycline; design: key to growth/killing, Analog + Doxy / growth/killing, Doxy Control / growth/killing, Analog Control / growth in MIC/MLC chart: +=growth; 0=no growth (MIC); ↓=killing; ? =99.9% killing (MLC); □=no growth, but no microbiologic testing;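 also: bacterial growth inhibition and killing in broth, each agent tested alone or combined with doxycycline across two-fold serial dilutions, overnight incubation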
S. aureus 4250 (Tet K) = test: MIC/MLC chart, analog with and without doxycycline
E. faecalis 158 (Tet L) = test: MIC/MLC chart, analog with and without doxycycline
E. faecalis 211 (Tet M) = test: MIC/MLC chart, analog with and without doxycycline

C=C1c2cccc(O)c2C(=O)C2=C(O)C3(O)C(=O)C(C(N)=O)=C(O)C(N(C)C)C3C(OC(=O)CC)C12 (stereo not drawn) [Cmpd 2]
1.3 µg/mL: MIC (S. aureus 450)
+: growth/killing, Analog + Doxy (E. coli DI-299 (Tet A); analog 1.56 + Doxy 1.55 μg/ml) | growth/killing, Analog + Doxy (E. coli DI-299 (Tet A); analog 1.56 + Doxy 3.1 μg/ml) | growth/killing, Analog + Doxy (E. coli DI-299 (Tet A); analog 1.56 + Doxy 6.2 μg/ml) | growth/killing, Analog + Doxy (E. coli DI-299 (Tet A); analog 1.56 + Doxy 12.3 μg/ml) | growth/killing, Analog + Doxy (E. coli DI-299 (Tet A); analog 3.12 + Doxy 1.53 μg/ml) | growth/killing, Analog + Doxy (E. coli DI-299 (Tet A); analog 3.12 + Doxy 3.05 μg/ml) | growth/killing, Analog + Doxy (E. coli DI-299 (Tet A); analog 3.12 + Doxy 6.1 μg/ml) | growth/killing, Analog + Doxy (E. coli DI-299 (Tet A); analog 6.25 + Doxy 3.0 μg/ml) | growth/killing, Analog + Doxy (E. coli DI-299 (Tet A); analog 6.25 + Doxy 5.9 μg/ml) | growth/killing, Analog + Doxy (E. coli DI-299 (Tet A); analog 12.5 + Doxy 2.8 μg/ml) | growth/killing, Analog + Doxy (E. coli DI-299 (Tet A); analog 12.5 + Doxy 5.5 μg/ml) | growth/killing, Analog + Doxy (E. coli DI-299 (Tet A); analog .195 + Doxy 1.56 μg/ml) | growth/killing, Analog + Doxy (E. coli DI-299 (Tet A); analog .195 + Doxy 3.12 μg/ml) | growth/killing, Analog + Doxy (E. coli DI-299 (Tet A); analog .195 + Doxy 6.25 μg/ml) | growth/killing, Analog + Doxy (E. coli DI-299 (Tet A); analog .195 + Doxy 12.5 μg/ml) | growth/killing, Analog + Doxy (E. coli DI-299 (Tet A); analog .39 + Doxy 1.56 μg/ml) | growth/killing, Analog + Doxy (E. coli DI-299 (Tet A); analog .39 + Doxy 3.12 μg/ml) | growth/killing, Analog + Doxy (E. coli DI-299 (Tet A); analog .39 + Doxy 6.25 μg/ml) | growth/killing, Analog + Doxy (E. coli DI-299 (Tet A); analog .39 + Doxy 12.5 μg/ml) | growth/killing, Analog + Doxy (E. coli DI-299 (Tet A); analog .78 + Doxy 1.56 μg/ml) | growth/killing, Analog + Doxy (E. coli DI-299 (Tet A); analog .78 + Doxy 3.12 μg/ml) | growth/killing, Analog + Doxy (E. coli DI-299 (Tet A); analog .78 + Doxy 6.23 μg/ml) | growth/killing, Analog + Doxy (E. coli DI-299 (Tet A); analog .78 + Doxy 12.4 μg/ml) | growth/killing, Analog Control (E. coli DI-299 (Tet A); analog alone 1.56 μg/ml) | growth/killing, Analog Control (E. coli DI-299 (Tet A); analog alone 3.12 μg/ml) | growth/killing, Analog Control (E. coli DI-299 (Tet A); analog alone 6.25 μg/ml) | growth/killing, Analog Control (E. coli DI-299 (Tet A); analog alone 12.5 μg/ml) | growth/killing, Analog Control (E. coli DI-299 (Tet A); analog alone 25.0 μg/ml) | growth/killing, Analog Control (E. coli DI-299 (Tet A); analog alone .195 μg/ml) | growth/killing, Analog Control (E. coli DI-299 (Tet A); analog alone .39 μg/ml) | growth/killing, Analog Control (E. coli DI-299 (Tet A); analog alone .78 μg/ml) | growth/killing, Analog + Doxy (S. aureus 4250 (Tet K); analog .195 + Doxy 1.56 μg/ml) | growth/killing, Analog + Doxy (S. aureus 4250 (Tet K); analog .195 + Doxy 3.12 μg/ml) | growth/killing, Analog + Doxy (S. aureus 4250 (Tet K); analog .195 + Doxy 6.25 μg/ml) | growth/killing, Analog + Doxy (S. aureus 4250 (Tet K); analog .39 + Doxy 1.56 μg/ml) | growth/killing, Analog + Doxy (S. aureus 4250 (Tet K); analog .39 + Doxy 3.12 μg/ml) | growth/killing, Analog + Doxy (S. aureus 4250 (Tet K); analog .39 + Doxy 6.25 μg/ml) | growth/killing, Analog + Doxy (S. aureus 4250 (Tet K); analog .78 + Doxy 1.56 μg/ml) | growth/killing, Analog + Doxy (S. aureus 4250 (Tet K); analog .78 + Doxy 3.12 μg/ml) | growth/killing, Analog Control (S. aureus 4250 (Tet K); analog alone 1.56 μg/ml) | growth/killing, Analog Control (S. aureus 4250 (Tet K); analog alone .195 μg/ml) | growth/killing, Analog Control (S. aureus 4250 (Tet K); analog alone .39 μg/ml) | growth/killing, Analog Control (S. aureus 4250 (Tet K); analog alone .78 μg/ml) | growth/killing, Analog + Doxy (E. faecalis 158 (Tet L); analog .195 + Doxy 1.56 μg/ml) | growth/killing, Analog + Doxy (E. faecalis 158 (Tet L); analog .195 + Doxy 3.12 μg/ml) | growth/killing, Analog + Doxy (E. faecalis 158 (Tet L); analog .39 + Doxy 1.56 μg/ml) | growth/killing, Analog Control (E. faecalis 158 (Tet L); analog alone .195 μg/ml) | growth/killing, Analog Control (E. faecalis 158 (Tet L); analog alone .39 μg/ml) | growth/killing, Analog Control (E. faecalis 158 (Tet L); analog alone .78 μg/ml) | growth/killing, Analog + Doxy (E. faecalis 211 (Tet M); analog 1.56 + Doxy 1.55 μg/ml) | growth/killing, Analog + Doxy (E. faecalis 211 (Tet M); analog 1.56 + Doxy 3.1 μg/ml) | growth/killing, Analog + Doxy (E. faecalis 211 (Tet M); analog 1.56 + Doxy 6.2 μg/ml) | growth/killing, Analog + Doxy (E. faecalis 211 (Tet M); analog 3.12 + Doxy 1.53 μg/ml) | growth/killing, Analog + Doxy (E. faecalis 211 (Tet M); analog 3.12 + Doxy 3.05 μg/ml) | growth/killing, Analog + Doxy (E. faecalis 211 (Tet M); analog 3.12 + Doxy 6.1 μg/ml) | growth/killing, Analog + Doxy (E. faecalis 211 (Tet M); analog .195 + Doxy 1.56 μg/ml) | growth/killing, Analog + Doxy (E. faecalis 211 (Tet M); analog .195 + Doxy 3.12 μg/ml) | growth/killing, Analog + Doxy (E. faecalis 211 (Tet M); analog .195 + Doxy 6.25 μg/ml) | growth/killing, Analog + Doxy (E. faecalis 211 (Tet M); analog .195 + Doxy 12.5 μg/ml) | growth/killing, Analog + Doxy (E. faecalis 211 (Tet M); analog .39 + Doxy 1.56 μg/ml) | growth/killing, Analog + Doxy (E. faecalis 211 (Tet M); analog .39 + Doxy 3.12 μg/ml) | growth/killing, Analog + Doxy (E. faecalis 211 (Tet M); analog .39 + Doxy 6.25 μg/ml) | growth/killing, Analog + Doxy (E. faecalis 211 (Tet M); analog .39 + Doxy 12.5 μg/ml) | growth/killing, Analog + Doxy (E. faecalis 211 (Tet M); analog .78 + Doxy 1.56 μg/ml) | growth/killing, Analog + Doxy (E. faecalis 211 (Tet M); analog .78 + Doxy 3.12 μg/ml) | growth/killing, Analog + Doxy (E. faecalis 211 (Tet M); analog .78 + Doxy 6.23 μg/ml) | growth/killing, Analog + Doxy (E. faecalis 211 (Tet M); analog .78 + Doxy 12.4 μg/ml) | growth/killing, Analog Control (E. faecalis 211 (Tet M); analog alone 1.56 μg/ml) | growth/killing, Analog Control (E. faecalis 211 (Tet M); analog alone 3.12 μg/ml) | growth/killing, Analog Control (E. faecalis 211 (Tet M); analog alone 6.25 μg/ml) | growth/killing, Analog Control (E. faecalis 211 (Tet M); analog alone .195 μg/ml) | growth/killing, Analog Control (E. faecalis 211 (Tet M); analog alone .39 μg/ml) | growth/killing, Analog Control (E. faecalis 211 (Tet M); analog alone .78 μg/ml)
10 µg/mL: MIC (E. coli ML308)
0.78 μg/ml: MIC of analog in combination (S. aureus 4250 (Tet K); with 6.23 μg/ml doxycycline (Chart 6B))
.8 µg/mL: MIC (E. faecalis ATCC 9790)
1.56 μg/ml: MIC of analog in combination (S. aureus 4250 (Tet K); with 1.55 μg/ml doxycycline (Chart 6B))
